Values after ≈ are worked out from the molar mass of the structure shown. Like-named read-outs stand apart in the source and are kept apart here.
Key:
Experiment in all cases: MIC (Minimum Inhibitory Concentration)
Format in all cases: cell-based
Trichophyton tonsurans = Trichophyton tonsurans 561-50; read-out: MIC values
Source text: (§1) In addition they may be used for combatting plant diseases, in particular as fungicides. A list of MIC (Minimum Inhibitory Concentration) values for a number of microorganisms is listed herebelow. The figures in the column headings refer to the compounds prepared according to the experimental examples in comparison with the spectrum of 1-[2-(2,4-dichlorophenyl)-2-{(2,4-dichlorophenyl)-methoxy} -ethyl7-1H-imidazole (better known under the name of miconazole, c.f. Merck Index 9th Ed. page 6047) or natamycin (pimaricin, c.f. Merck Index 9th Ed. page 7233).

Trichophyton equinum = tested on: Trichophyton equinum
Source text: as §1

Trichophyton quickeaneum = Trichophyton quickeaneum A 2040; read-out: MIC values
Source text: as §1

[1] = tested on: Streptococcus haemolyticus; conditions: Streptococcus haemolyticus A 1088; read-out: MIC values
Source text: as §1

[2] = tested on: Trichophyton mentagrophytus
Source text: as §1

Pasteurella multocida = Pasteurella multocida A 723; read-out: MIC values
Source text: as §1

Candida albicans = tested on: Candida albicans
Source text: as §1

Trichophyton violoceum = Trichophyton violoceum 442-62; read-out: MIC values
Source text: as §1

Trichophyton rubrum = tested on: Trichophyton rubrum
Source text: as §1

Trichophyton verrucosum = tested on: Trichophyton verrucosum
Source text: as §1

[3] = tested on: Trichophyton schoenleinii; conditions: Trichophyton schoenleinii 435-63; read-out: MIC values
Source text: as §1

[4] = Trichophyton equinum 182-76, read-out: MIC values
[5] = Trichophyton equinum 441-51, read-out: MIC values
[6] = Trichophyton mentagrophytus 367-68, read-out: MIC values
[7] = Trichophyton mentagrophytus 421-67, read-out: MIC values
[8] = Trichophyton mentagrophytus A 3252, read-out: MIC values
[9] = Trichophyton mentagrophytus R 177, read-out: MIC values
[10] = Trichophyton mentagrophytus R 178, read-out: MIC values
[11] = Candida albicans A 7, read-out: MIC values
[12] = Candida albicans A 3140, read-out: MIC values
[13] = Candida albicans A 3141, read-out: MIC values
[14] = Candida albicans A 3142, read-out: MIC values
[15] = Candida albicans A 3143, read-out: MIC values
[16] = Candida albicans A 3144, read-out: MIC values
[17] = Candida albicans A 3145, read-out: MIC values
[18] = Candida albicans A 3165, read-out: MIC values
[19] = Candida albicans A 3166, read-out: MIC values
[20] = Candida albicans A 3167, read-out: MIC values
[21] = Candida albicans A 3168, read-out: MIC values
[22] = Candida albicans A 3169, read-out: MIC values
[23] = Candida albicans A 3171, read-out: MIC values
[24] = Candida albicans A 3184, read-out: MIC values
[25] = Candida albicans A 3190, read-out: MIC values
[26] = Candida albicans A 3191, read-out: MIC values
[27] = Candida albicans A 3192, read-out: MIC values
[28] = Candida albicans A 3194, read-out: MIC values
[29] = Candida albicans A 3196, read-out: MIC values
[30] = Trichophyton rubrum 218-65, read-out: MIC values
[31] = Trichophyton rubrum 494-62, read-out: MIC values
[32] = Trichophyton rubrum A 810, read-out: MIC values
[33] = Trichophyton verrucosum 134-66, read-out: MIC values
[34] = Trichophyton verrucosum A 2922, read-out: MIC values

SMILES: [C-]#[N+]C(=C(C)c1cccs1)S(=O)(=O)c1ccc(C)cc1 [Example 17, 1-isocyano-1-(4-toluenesulphonyl)-2-(2-thienyl)-1-propene]
- MIC (Trichophyton tonsurans): < 0.4 µg/mL
- MIC (Trichophyton equinum; [4]): > 100 µg/mL
- MIC (Trichophyton equinum; [5]): 0.75 µg/mL (≈ 2.47 µM)
- MIC (Trichophyton quickeaneum): 6 µg/mL (≈ 19.8 µM)
- MIC [1]: 6 µg/mL (≈ 19.8 µM)
- MIC [2, 6]: 100 µg/mL (≈ 330 µM)
- MIC [2, 7]: > 100 µg/mL
- MIC [2, 8]: 6 µg/mL (≈ 19.8 µM)
- MIC [2, 9]: > 100 µg/mL
- MIC [2, 10]: > 100 µg/mL
- MIC (Pasteurella multocida): 3 µg/mL (≈ 9.89 µM)
- MIC (Candida albicans; [11]): 0.75 µg/mL (≈ 2.47 µM)
- MIC (Candida albicans; [12]): 1.5 µg/mL (≈ 4.94 µM)
- MIC (Candida albicans; [13]): 1.5 µg/mL (≈ 4.94 µM)
- MIC (Candida albicans; [14]): 1.5 µg/mL (≈ 4.94 µM)
- MIC (Candida albicans; [15]): 1.5 µg/mL (≈ 4.94 µM)
- MIC (Candida albicans; [16]): 1.5 µg/mL (≈ 4.94 µM)
- MIC (Candida albicans; [17]): 3 µg/mL (≈ 9.89 µM)
- MIC (Candida albicans; [18]): 1.5 µg/mL (≈ 4.94 µM)
- MIC (Candida albicans; [19]): 1.5 µg/mL (≈ 4.94 µM)
- MIC (Candida albicans; [20]): 1.5 µg/mL (≈ 4.94 µM)
- MIC (Candida albicans; [21]): 3 µg/mL (≈ 9.89 µM)
- MIC (Candida albicans; [22]): 1.5 µg/mL (≈ 4.94 µM)
- MIC (Candida albicans; [23]): 1.5 µg/mL (≈ 4.94 µM)
- MIC (Candida albicans; [24]): 1.5 µg/mL (≈ 4.94 µM)
- MIC (Candida albicans; [25]): 1.5 µg/mL (≈ 4.94 µM)
- MIC (Candida albicans; [26]): 3 µg/mL (≈ 9.89 µM)
- MIC (Candida albicans; [27]): 1.5 µg/mL (≈ 4.94 µM)
- MIC (Candida albicans; [28]): 3 µg/mL (≈ 9.89 µM)
- MIC (Candida albicans; [29]): 1.5 µg/mL (≈ 4.94 µM)
- MIC (Trichophyton violoceum): 3 µg/mL (≈ 9.89 µM)
- MIC (Trichophyton rubrum; [30]): 6 µg/mL (≈ 19.8 µM)
- MIC (Trichophyton rubrum; [31]): 6 µg/mL (≈ 19.8 µM)
- MIC (Trichophyton rubrum; [32]): 12.5 µg/mL (≈ 41.2 µM)
- MIC (Trichophyton verrucosum; [33]): 0.75 µg/mL (≈ 2.47 µM)
- MIC (Trichophyton verrucosum; [34]): 0.4 µg/mL (≈ 1.32 µM)
- MIC [3]: 3 µg/mL (≈ 9.89 µM)

SMILES: [C-]#[N+]C(=C(CCCC)c1ccccc1)S(=O)(=O)c1ccc(C)cc1 [Example 19, 2-phenyl-1-isocyano-1-(4-toluenesulphonyl)-1-hexene]
- MIC (Trichophyton tonsurans): 0.4 µg/mL (≈ 1.18 µM)
- MIC (Trichophyton equinum; [4]): > 100 µg/mL
- MIC (Trichophyton equinum; [5]): 3 µg/mL (≈ 8.84 µM)
- MIC (Trichophyton quickeaneum): > 100 µg/mL
- MIC [1]: > 100 µg/mL
- MIC [2, 6]: > 100 µg/mL
- MIC [2, 7]: > 100 µg/mL
- MIC [2, 8]: > 100 µg/mL
- MIC [2, 9]: > 100 µg/mL
- MIC [2, 10]: > 100 µg/mL
- MIC (Pasteurella multocida): > 100 µg/mL
- MIC (Candida albicans; [11]): 6 µg/mL (≈ 17.7 µM)
- MIC (Candida albicans; [12]): 6 µg/mL (≈ 17.7 µM)
- MIC (Candida albicans; [13]): 6 µg/mL (≈ 17.7 µM)
- MIC (Candida albicans; [14]): 6 µg/mL (≈ 17.7 µM)
- MIC (Candida albicans; [15]): 6 µg/mL (≈ 17.7 µM)
- MIC (Candida albicans; [16]): > 100 µg/mL
- MIC (Candida albicans; [17]): 6 µg/mL (≈ 17.7 µM)
- MIC (Candida albicans; [18]): 6 µg/mL (≈ 17.7 µM)
- MIC (Candida albicans; [19]): 6 µg/mL (≈ 17.7 µM)
- MIC (Candida albicans; [20]): 50 µg/mL (≈ 147 µM)
- MIC (Candida albicans; [21]): 6 µg/mL (≈ 17.7 µM)
- MIC (Candida albicans; [22]): 3 µg/mL (≈ 8.84 µM)
- MIC (Candida albicans; [23]): 3 µg/mL (≈ 8.84 µM)
- MIC (Candida albicans; [24]): 50 µg/mL (≈ 147 µM)
- MIC (Candida albicans; [25]): 6 µg/mL (≈ 17.7 µM)
- MIC (Candida albicans; [26]): > 100 µg/mL
- MIC (Candida albicans; [27]): 6 µg/mL (≈ 17.7 µM)
- MIC (Candida albicans; [28]): 6 µg/mL (≈ 17.7 µM)
- MIC (Candida albicans; [29]): 100 µg/mL (≈ 295 µM)
- MIC (Trichophyton violoceum): > 100 µg/mL
- MIC (Trichophyton rubrum; [30]): > 100 µg/mL
- MIC (Trichophyton rubrum; [31]): > 100 µg/mL
- MIC (Trichophyton rubrum; [32]): > 100 µg/mL
- MIC (Trichophyton verrucosum; [33]): 3 µg/mL (≈ 8.84 µM)
- MIC (Trichophyton verrucosum; [34]): 3 µg/mL (≈ 8.84 µM)
- MIC [3]: > 100 µg/mL

SMILES: [C-]#[N+]C(=C(CCCCC)CCCCC)S(=O)(=O)c1ccc(C)cc1 [Example 26, 1-isocyana-2-pentyl-1-(4-toluenesulphonyl)-1-heptene]
- MIC (Trichophyton tonsurans): 100 µg/mL (≈ 288 µM)
- MIC (Trichophyton equinum; [4]): > 100 µg/mL
- MIC (Trichophyton equinum; Trichophyton equinum 856-71, read-out: MIC values): 50 µg/mL (≈ 144 µM)
- MIC (Trichophyton quickeaneum): > 100 µg/mL
- MIC [1]: > 100 µg/mL
- MIC [2, 6]: > 100 µg/mL
- MIC [2, 7]: 100 µg/mL (≈ 288 µM)
- MIC [2, 8]: > 100 µg/mL
- MIC [2, 9]: > 100 µg/mL
- MIC [2, 10]: > 100 µg/mL
- MIC ([2]; Trichophyton mentagrophytus RRL 305, read-out: MIC values): > 100 µg/mL
- MIC (Pasteurella multocida): 100 µg/mL (≈ 288 µM)
- MIC (Candida albicans; [11]): 50 µg/mL (≈ 144 µM)
- MIC (Candida albicans; [12]): 6 µg/mL (≈ 17.3 µM)
- MIC (Candida albicans; [13]): 25 µg/mL (≈ 71.9 µM)
- MIC (Candida albicans; [14]): 25 µg/mL (≈ 71.9 µM)
- MIC (Candida albicans; [15]): 50 µg/mL (≈ 144 µM)
- MIC (Candida albicans; [16]): 100 µg/mL (≈ 288 µM)
- MIC (Candida albicans; [17]): 25 µg/mL (≈ 71.9 µM)
- MIC (Candida albicans; [18]): 50 µg/mL (≈ 144 µM)
- MIC (Candida albicans; [19]): 25 µg/mL (≈ 71.9 µM)
- MIC (Candida albicans; [20]): > 100 µg/mL
- MIC (Candida albicans; [21]): 100 µg/mL (≈ 288 µM)
- MIC (Candida albicans; [22]): 25 µg/mL (≈ 71.9 µM)
- MIC (Candida albicans; [23]): 50 µg/mL (≈ 144 µM)
- MIC (Candida albicans; [24]): 50 µg/mL (≈ 144 µM)
- MIC (Candida albicans; [25]): 50 µg/mL (≈ 144 µM)
- MIC (Candida albicans; [26]): > 100 µg/mL
- MIC (Candida albicans; [27]): 50 µg/mL (≈ 144 µM)
- MIC (Candida albicans; [28]): 50 µg/mL (≈ 144 µM)
- MIC (Candida albicans; [29]): 50 µg/mL (≈ 144 µM)
- MIC (Trichophyton violoceum): 100 µg/mL (≈ 288 µM)
- MIC (Trichophyton rubrum; [30]): 100 µg/mL (≈ 288 µM)
- MIC (Trichophyton rubrum; [31]): 100 µg/mL (≈ 288 µM)
- MIC (Trichophyton rubrum; [32]): 50 µg/mL (≈ 144 µM)
- MIC [3]: 100 µg/mL (≈ 288 µM)

Source: patent EP0007672A1, “Isocyanoalkenes, process and useful intermediates for their preparation, pharmaceutical and fungicidal preparations containing those isocyanoalkenes and the use of the fungicidal preparations in agriculture” (GIST-BROCADES N.V., priority 1978, dated 1980)
